Active and inactive are the calls of the source. The calls are words filed in the database; no cut-off is given here.

We go through 5 compounds from ChEMBL document CHEMBL1121542, “Beta-adrenergic blocking agents. 20. (3-Hydroxyprop-1-enyl)-substituted 1-(aryloxy)-3-(alkylamino)propan-2-ols” (J Med Chem, 1980).

The subject of one assay is Adrenergic receptor beta. The assay is described as follows: Compound was evaluated in vivo for beta-Adrenoceptor blocking potency in cat and is expressed as total dose, infused over a period of 30 minutes, causing 50% inhibition of the tachycardia (iv administration); NA means not active. The class given is functional, organism-based. The conditions noted are these: Felis catus.

Assay [1] has as its target Adrenergic receptor beta (Homo sapiens) (UniProt P08588+P07550+P13945). The assay is described as follows: Compound was evaluated in vivo for beta-Adrenoceptor blocking potency in cat measured as the degree (percent) of blockade of the vasopressor response at the dose level. The class given is functional, organism-based. The conditions noted are these: Felis catus; target entry is the homologue from another species.

`CC(C)NCC(O)COc1cc(/C=C/CO)ccc1Br` (stereo not given): the Inhibition entry in the assay on Adrenergic receptor beta was “inactive”.
Take `CCOc1cc(/C=C/CO)ccc1OCC(O)CNC(C)C` (stereo not given): the Inhibition result in the assay on Adrenergic receptor beta was “inactive”.
`COc1ccc(/C=C/CO)cc1OCC(O)CNC(C)C` (stereo not given): in the assay with Adrenergic receptor beta, the Inhibition result is “inactive”.
Regarding `C=CCc1cc(/C=C/CO)ccc1OCC(O)CNC(C)(C)C` (stereo not given), the Inhibition entry in the assay with Adrenergic receptor beta was “inactive”.
`CC(C)(C)NCC(O)COc1ccc(/C=C/CO)cc1Cl` (stereo not given) displayed an Inhibition in assay [1] of 76%.

For orientation: Inhibition means the drop in the measured response relative to a control, in per cent.
